Assay results as given in patent US10786509B2, “Treatment and prevention of atherothrombosis by inhibition of bruton's tyrosine kinase (BTK)” (priority 2016, dated 2020).
“And” between values parts separate entries of the source, which are not always exact repeats. Equal values may be shown once. Read-outs that look alike come from different tables or passages of the source.

Assays:
[1] = test system: platelet aggregation in blood; assay: Platelet aggregation in blood by multiple electrode aggregometry (MEA), static, inhibitor added in vitro; format: cell-based, human; conditions: for collagen-induced platelet aggregation / platelet aggregation stimulated by TRAP, ADP or AA: 2 μM; for collagen-induced platelet aggregation: compared with plaque-induced aggregation; for maximal suppression of plaque-induced platelet aggregation: ACP-196 at 1 μM, ONO/GS-4059 at 2 μM; for IC50: Homo sapiens, Platelet, 15 min pre-incubation, MEA
Method: The first 3 ml of blood drawn into an empty syringe were discarded. Experiments were performed between 30 min and 4 h after venipuncture. […] (Bampalis V G. et al.

[2] = test system: platelet deposition onto plaque homogenate, plaque tissue sections or collagen; assay: Platelet aggregation and thrombus formation in flowing whole blood (parallel plate flow chamber), inhibitor added in vitro; format: cell-based, human; conditions: for final platelet aggregate formation onto collagen fibers: up to 2 μM, only delayed at highest concentrations
[3] = Blood counts, liver enzymes and tolerability in two healthy volunteers after oral Imbruvica
[4] = test system: platelet deposition onto plaque homogenate or collagen; assay: Ex vivo platelet thrombus formation under arterial flow in two healthy volunteers after oral Imbruvica; parameters: species or system human; conditions: shear rate 600/s
Method: For experiments in flowing blood, glass cover slips (Menzel, 24×60 mm, #1.5) coated with collagen (20 μg/ml), plaque homogenates or plaque tissue sections were assembled into parallel plate flow chambers using sticky slides (0.1 Luer sticky slides, Ibidi®, Martinsried, Germany) which had been blocked before with human serum albumin (HSA; 4% in PBS).
Fluorescence microscopy (excitation: 485/25 nm, emission: 528/38 nm) was performed for real time measurement of platelet adhesion and aggregate formation using a 10× air objective (NA 0.4) and a CoolSNAP HQ2 CCD camera (Photometrics, Tucson, USA).

[5] = test system: platelet aggregation in blood; assay: Ex vivo static platelet aggregation (MEA) in two healthy volunteers after oral Imbruvica
[6] = plaque 833 μg/ml, static, read-out: IC50 for inhibition of plaque-induced platelet aggregation
[7] = plaque-induced platelet aggregation, static
[8] = donor A, 1 week after low dose Imbruvica (140 mg/d)
[9] = donor A, 3 h after Imbruvica loading dose (3×140 mg)
[10] = donor B, 1 week after low dose Imbruvica (140 mg each other day)
[11] = donor B, 3 h after Imbruvica loading dose (3×140 mg)
[12] = donor B, after 1 week 140 mg each other day

## CC#CC(=O)N1CC[C@@H](n2c(=O)n(-c3ccc(Oc4ccccc4)cc3)c3c(N)ncnc32)C1.Cl [ONO/GS-4059]
[1]; static
  collagen-induced platelet aggregation: equally well inhibited
  platelet aggregation stimulated by TRAP, ADP or AA: only marginally
  maximal suppression of plaque-induced platelet aggregation: 82%
[1]; [6]
  IC50: 1 µM
[1]; [7]
  concentration at which maximal suppression was reached: 2 µM
[2]; shear rate 600/s
  final platelet aggregate formation onto collagen fibers: did not compromise

## CC#CC(=O)N1CCC[C@H]1c1nc(-c2ccc(C(=O)Nc3ccccn3)cc2)c2c(N)nccn12 [acalabrutinib]
[1]; static
  collagen-induced platelet aggregation: equally well inhibited
  platelet aggregation stimulated by TRAP, ADP or AA: only marginally
  maximal suppression of plaque-induced platelet aggregation: 80%
[1]; [6]
  IC50: 0.4 µM
[1]; [7]
  concentration at which maximal suppression was reached: 1 µM
[2]; 2 μM, shear rate 600/s
  inhibition of platelet aggregation / thrombus formation onto plaque homogenate: 96%
[2]; shear rate 600/s
  final platelet aggregate formation onto collagen fibers: did not compromise

## C=CC(=O)N1CCC[C@@H](n2nc(-c3ccc(Oc4ccccc4)cc3)c3c(N)ncnc32)C1 [ibrutinib, 1-[(3R)-3-[4-Amino-3-(4-phenoxyphenyl)-1H-pyrazolo[3,4-d]pyrimidin-1-yl]piperidin-1-yl]prop-2-en-1-one]
[3]; both donors
  B-lymphocytes (measured by FACS): rather increased then decreased
[3]; [8]
  HCT: 36.7
  Hb: 13.0 g/dL
  Lymphocytes: 2900 µL⁻¹
  Lymphocytes, %: 45.9%
  Monocytes: 500 µL⁻¹
  Monocytes, %: 8.1%
  Neutrophils: 2900 µL⁻¹
  Neutrophils, %: 46%
  Platelets: 217000 µL⁻¹
  Red blood cells: 4.22e+06 µL⁻¹
[3]; [9]
  HCT: 36.8
  Hb: 12.4 g/dL
  Lymphocytes: 2600 µL⁻¹
  Lymphocytes, %: 44%
  Monocytes: 300 µL⁻¹
  Monocytes, %: 5.8%
  Neutrophils: 2900 µL⁻¹
  Neutrophils, %: 50.2%
  Platelets: 247000 µL⁻¹
  Red blood cells: 4.07e+06 µL⁻¹
[3]; [10]
  HCT: 44
  Hb: 16.1 g/dL
  Lymphocytes: 2000 µL⁻¹
  Lymphocytes, %: 29.5%
  Monocytes: 900 µL⁻¹
  Monocytes, %: 12.5%
  Neutrophils: 3900 µL⁻¹
  Neutrophils, %: 58%
  Platelets: 160000 µL⁻¹
  Red blood cells: 4.91e+06 µL⁻¹
[3]; [11]
  HCT: 47.8
  Hb: 17.2 g/dL
  Lymphocytes: 1700 µL⁻¹
  Lymphocytes, %: 27.0%
  Monocytes: 700 µL⁻¹
  Monocytes, %: 10.7%
  Neutrophils: 4000 µL⁻¹
  Neutrophils, %: 62.3%
  Platelets: 188000 µL⁻¹
  Red blood cells: 5.39e+06 µL⁻¹
[3]; loading dose or weekly low dose intake, two donors
  liver enzymes: not altered
[1]; 1 μM, ADP 5 μM, static
  reduction of platelet aggregation stimulated by ADP: −13%
[1]; 1 μM, TRAP 5 μM, static
  reduction of platelet aggregation stimulated by TRAP: −31%
[1]; 1 μM, collagen, static
  platelet aggregation upon stimulation with collagen: almost completely inhibited
[1]; 1 μM, no stimulus
  spontaneous minimal platelet aggregation in the absence of stimuli: abolished
[1]; 1 μM, plaque 833 μg/ml, static
  platelet aggregation upon stimulation with plaque: almost completely inhibited
[1]; collagen, static, read-out: IC50 for inhibition of collagen-stimulated platelet aggregation
  IC50: 0.12 ± 0.04 µM
[1]; [6]
  IC50: 0.18 ± 0.05 µM
[1]; plaque- and collagen-stimulated platelet aggregation, static
  concentration at which maximal suppression was reached: 0.5 µM
[2]; 0.2 μM and 0.5 μM, high shear rate 1500/s
  platelet aggregation onto collagen: did not reduce
[2]; 0.2 μM, high shear rate 1500/s
  change of platelet thrombus formation onto plaque homogenate: −69±16%
[2]; 0.2 μM, shear rate 600/s
  change of collagen-induced platelet aggregation: +1±6%
  change of platelet aggregation onto plaque homogenate: −43±27%
  change of platelet aggregation onto plaque tissue: −33±23%
[2]; 0.5 μM, high shear rate 1500/s
  change of platelet thrombus formation onto plaque homogenate: −93±5%
[2]; 0.5 μM, shear rate 600/s
  change of collagen-induced platelet aggregation: +3±9%
  change of platelet aggregation onto plaque homogenate: −84±8%
  change of platelet aggregation onto plaque tissue: −44±30%
[2]; 1 μM, shear rate 600/s
  change of final platelet aggregate formation onto collagen fibers: +8±2%
  change of platelet aggregation onto plaque homogenate: −98±1%
  change of platelet thrombus formation onto plaque tissue: −76±16%
  platelet adhesion onto plaque homogenate: preserving platelet adhesion
[4]; after 1 week 140 mg/d (donor A) or 140 mg each other day (donor B)
  plaque-induced thrombus formation under arterial flow: suppressed
[4]; both donors, 3 h after loading dose 3×140 mg
  plaque-induced thrombus formation under arterial flow: suppressed
[5]; donor A, 140 mg/d during the week, blood taken 23 h or 3 h post dose
  inhibition of plaque-induced platelet aggregation at each day tested: > 90%
[5]; donor A, 3 h after loading dose 3×140 mg
  inhibition of collagen-induced platelet aggregation: 91%
[5]; donor A, 3 h after loading dose 3×140 mg, one value per pool, listed as Imbruvica
  inhibition of platelet aggregation induced by two plaque homogenate pools: 94% and 93%
[5]; donor A, after 1 week 140 mg/d
  inhibition of platelet aggregation after collagen stimulation: 91%
  reduction of platelet aggregation stimulated by TRAP: 70%
[5]; donor A, after 1 week 140 mg/d, one value per pool, listed as Imbruvica
  inhibition of platelet aggregation stimulated by two plaque homogenate pools: 94% and 91%
[5]; donor B, 3 h after loading dose 3×140 mg
  reduction of platelet aggregation after collagen stimulation: 58%
[5]; donor B, 3 h after loading dose 3×140 mg, one value per pool, listed as Imbruvica
  reduction of platelet aggregation after plaque stimulation (two pools): 68% and 77%
[5]; [12]
  inhibition of platelet aggregation after collagen stimulation: 82%
  reduction of platelet aggregation stimulated by TRAP: 45%
[5]; donor B, after 1 week 140 mg each other day, one value per pool, listed as Imbruvica
  inhibition of platelet aggregation stimulated by two plaque homogenate pools: 93% and 91%
[5]; donors A and B, 3 h after loading dose 3×140 mg
  platelet aggregation induced by TRAP, ADP or AA: barely inhibited
[5]; donors A and B, after 1 week low dose
  platelet aggregation induced by ADP or AA: barely inhibited
